# Reference: patent publication US20250204532A1, “Treatment Liquid for Cleaning an Implant Part” (Zyfoma GmbH, priority 2013, published 2025)
# Tested on: biofilm
# Assay: electrolytic cleaning of biofilm-contaminated implant surface (laboratory test)
# Settings: implants greatly covered and contaminated with a biofilm, on which tartar has also developed; relatively low dosages
# Description: For detaching the bacteria or germs, respectively their residues or fragments, from the surface, it is provided to wet the latter with a conductive treatment liquid, charging it with current, possibly in the form of pulsed current impulses. […] Here, e.g. oil and/or chlorhexidine can be used. Furthermore, ionic liquids, which preferably contain I^−, Cl^− and/or OH^− ions, can also be used.
smiles,measurement,value
CC(=O)O [ethanoic acid],cleaning success,good cleaning success
